Measurements as given in US5500424A, “Pyrimidine and pyridine derivatives, their production and use” (Nihon Nohyaku Co., Ltd., priority 1993, dated 1996).

Assays:
[1] = biological target: T1, acyl-CoA:cholesterol acyltransferase (ACAT) (Oryctolagus cuniculus, UniProt G1SFD9); assay: Inhibitory activity on acyl-CoA:cholesterol acyltransferase (ACAT); type: biochemical, white rabbit; details: rabbit intestinal mucosa microsomes, read-out: Inhibition rate
T1 construct: The intestinal mucosa of a white rabbit was homogenized and microsomal fraction was obtained; from tissue; host or cells: white rabbit intestinal mucosa, microsomal fraction
T1 sequence (G1SFD9 1-524): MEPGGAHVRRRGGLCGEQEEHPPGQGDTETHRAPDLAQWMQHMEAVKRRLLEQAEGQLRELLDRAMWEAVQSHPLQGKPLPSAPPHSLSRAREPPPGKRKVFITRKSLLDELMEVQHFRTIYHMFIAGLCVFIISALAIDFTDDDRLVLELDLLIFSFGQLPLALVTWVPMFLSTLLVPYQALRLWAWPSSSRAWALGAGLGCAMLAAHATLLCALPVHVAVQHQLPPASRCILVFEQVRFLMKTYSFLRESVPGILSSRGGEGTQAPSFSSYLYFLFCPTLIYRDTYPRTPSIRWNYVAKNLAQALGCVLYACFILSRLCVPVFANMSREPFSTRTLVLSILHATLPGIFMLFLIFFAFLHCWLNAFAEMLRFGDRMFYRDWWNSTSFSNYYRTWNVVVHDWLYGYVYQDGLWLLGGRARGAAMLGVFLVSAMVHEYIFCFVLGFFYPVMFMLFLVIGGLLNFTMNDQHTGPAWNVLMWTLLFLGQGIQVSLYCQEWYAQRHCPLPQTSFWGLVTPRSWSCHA
Protocol: Inhibitory activity on acyl-CoA:cholesterol acyltransferase (ACAT)
The enzyme used in the test was prepared according to the method of Heider et al. [J. Lipid, Res. 24, 1127 (1983)]. The intestinal mucosa of a white rabbit was homogenized and microsomal fraction was obtained by stepwise centrifugation. The microsomal fraction was suspended in 0.154M phosphate buffer (pH 7.4) and stored at -80° C. until use.
ACAT activity was determined by a modification of the method of Helgerud et al. [J. Lipid Res. 22, 271 (1981)] by measuring radioactivity incorporated into cholesterol esters from [1-^14 C]oleyl-CoA, as an indication. As to the ACAT-inhibitory activity of each compound to be tested, the inhibition rate was calculated by the following equation. [formula]

[2] = tested on: hamsters fed on a high-cholesterol diet; assay: Serum cholesterol lowering activity in hamsters fed on a high-cholesterol diet; type: in vivo, Male Syrian hamsters; details: Mesocricetus auratus, 30 mg/kg per day for 4 days, 24 hours after last administration, read-out: Reduction rate of total serum cholesterol concentration
Protocol: Serum cholesterol lowering activity in hamsters fed on a high-cholesterol diet
Male Syrian hamsters of 10-week-old were divided into three groups. The first group (normal group) was fed an ordinary diet for 4 days. The second group (control group) was fed a high cholesterol diet (containing 0.5% cholesterol and 8.0% coconut oil) for 4 days. The third group (treated group) was fed a high cholesterol diet and was treated with a compound for 4 days. Simultaneously with the beginning of the above feeding, the compound was suspended in a 0.5% carboxymethyl cellulose solution and administered to the treated group, in a dose of 30 mg (in terms of the compound) per kg of body weight per day for 4 days. A 0.5% carboxymethyl cellulose solution was also administered to the normal group and the control group in the same manner as above.
After 24 hours of the last administration, blood was collected and the cholesterol concentration in serum was measured by an enzymatic method. The reduction rate of the total serum cholesterol concentration was calculated from values obtained for the three groups by the following equation. [formula] wherein A: the serum cholesterol concentration of the control group.
B: the serum cholesterol concentration of the treated group.
C: the serum cholesterol concentration of the normal group.

[3] = tested on: cholesterol esterification in macrophages (J774 A.I cells); assay: Inhibitory effect on cholesterol esterification in macrophages; type: cell-based; details: Mus musculus, AcLDL-loaded J774 A.I cells, read-out: Inhibition rate
Protocol: Inhibitory effect on cholesterol esterification in macrophages
The test was carried out by a modification of the method of Goldstein et al. [Pro. Nat. Acad. Sci. U.S.A. 71, 4288 (1974)]. J774 A.I cells, the mouse macrophage-like cell line, were suspended in Dulbecco's modified Eagle's medium (DMEM) containing 10% fetal calf serum (FCS), in a proportion of 3×10^5 cells per 2 ml and were seeded into 6-well plates. The cells were cultured under a humidified atmosphere of 95% air/5% CO2 at 37° C. for 24 hours. The medium was replaced by 1 ml of DMEM containing 10% of FCS and 50 μg/ml of acetylated human low density lipoprotein (AcLDL), followed by culturing for 16 hours. Five microliters of each compound dissolved in dimethyl sulfoxide was added to the medium, and the cells were cultured for another 2 hours. Then, [^14 C]oleate (2×10^6 dpm/well) bovine serum albumin complex was added in the medium. After 2 hours of culture, cells were collected and the cholesterol-esterifying activity was determined by measuring radioactivity incorporated into cholesterol esters in the cells. The recovery of the cholesterol esters was determined by the addition of [^3 H]cholesteryl oleate, and the esterifying activity was corrected using the recovery. As to the inhibitory activity on cholesterol esterification of the compound to be tested, the inhibition rate was calculated by the following equation. [formula] wherein A: the cholesterol-esterifying activity of AcLDL-loaded cells to which the compound to be tested was added.
B: the cholesterol-esterifying activity of AcLDL-loaded cells to which dimethyl sulfoxide was added.

**Q.** How did the inhibition at 0.01 µM [1] turn out when CC(C)c1cccc(C(C)C)c1NC(=O)Nc1cnc(-c2ccccc2)nc1-c1ccccc1 [Compound 32, N-(2,6-Diisopropylphenyl)-N'-(2,4-diphenylpyrimidin-5-yl)urea] was run?
**A.** The inhibition at 0.01 µM was 73.5%.

**Q.** What about the inhibition in vivo at 30 mg/kg [2] of the same molecule?
**A.** The inhibition in vivo at 30 mg/kg was 63.7%.

**Q.** And the inhibition at 0.3 µM [3]?
**A.** The inhibition at 0.3 µM was 58%.

**Q.** What about the inhibition at 1 µM [3] of the same molecule?
**A.** Its inhibition at 1 µM is 74.3%.

**Q.** With CCc1cccc(CC)c1NC(=O)Nc1cnc(-c2ccccc2)nc1-c1ccccc1C(F)(F)F [Compound 37, N-(2,6-Diethylphenyl)-N'-[2-phenyl-4-(2-trifluoromethylphenyl)pyrimidin-5-yl]urea] as the molecule, how does the inhibition at 0.01 µM [1] read?
**A.** Its inhibition at 0.01 µM is 72.3%.

**Q.** What about the inhibition in vivo at 30 mg/kg [2] of the same molecule?
**A.** The inhibition in vivo at 30 mg/kg was 63.3%.

**Q.** And the inhibition at 0.3 µM [3]?
**A.** The inhibition at 0.3 µM was 67.1%.

**Q.** What about the inhibition at 1 µM [3] of the same molecule?
**A.** The inhibition at 1 µM was 87.2%.

**Q.** Which inhibition at 0.01 µM [1] does the source give for Cc1ccccc1-c1nc(-c2ccccc2)ncc1NC(=O)Nc1c(C(C)C)cccc1C(C)C [Compound 36, N-(2,6-Diisopropylphenyl)-N'-[4-(2-methylphenyl)-2-phenylpyrimidin-5-yl]urea] here?
**A.** The inhibition at 0.01 µM was 72.9%.

**Q.** And the inhibition in vivo at 30 mg/kg [2]?
**A.** The inhibition in vivo at 30 mg/kg was 63.4%.

**Q.** What about the inhibition at 0.3 µM [3] of the same molecule?
**A.** Its inhibition at 0.3 µM is 51.6%.

**Q.** For CC(C)c1cccc(C(C)C)c1NC(=O)Nc1cnc(-c2ccccc2)nc1-c1ccccc1Cl [Compound 15, N-[4-(2-Chlorophenyl)-2-phenylpyrimidin-5-yl]-N'-(2,6-diisopropylphenyl)urea], which inhibition at 0.01 µM [1] is on record?
**A.** The inhibition at 0.01 µM was 67.6%.

**Q.** What about the inhibition at 1 µM ([1]; 1 μM) of the same molecule?
**A.** Its inhibition at 1 µM is 99.5%.

**Q.** And the inhibition in vivo at 30 mg/kg [2]?
**A.** Its inhibition in vivo at 30 mg/kg is 57.6%.

**Q.** And the inhibition at 0.3 µM [3]?
**A.** The inhibition at 0.3 µM was 29.5%.

**Q.** And the inhibition at 1 µM [3]?
**A.** The inhibition at 1 µM was 73.3%.

**Q.** Which results are given for CCc1cccc(CC)c1NC(=O)Nc1cnc(N2CCCCC2)nc1-c1ccccc1Cl [Compound 55, N-[4-(2-Chlorophenyl)-2-(N-piperidino)pyrimidin-5-yl]-N'-(2,6-diethylphenyl)urea]?
**A.** inhibition at 0.01 µM [1]: 75.7%; inhibition in vivo at 30 mg/kg [2]: 77.5%; inhibition at 0.3 µM [3]: 34.9%
